In this test the test system is HADHA Mut CMs. Kind of test: Seahorse MitoStress assay, proton leak in fatty acid challenged HADHA Mut CMs. In kind it is cell-based, human. As to conditions: 1 nM, 12D Glc+FA media, vs non-treated Mut CMs. An excerpt: To better understand the pathological state of HADHA Mut and KO CMs exposed to chronic FAs, their mitochondria were functionally assessed. […] Because exposure to FAs led to a reduction in mitochondrial membrane potential and reduced ATP production, it was postulated that this may be due in part to an increased proton leak.
The Seahorse XF96 extracellular flux analyzer was used to assess mitochondrial function as previously described [Kuppusamy, K. T., et al., Let-7 family of microRNA is required for maturation and adult-like metabolism in stem cell-derived cardiomyocytes. Proc Natl Acad Sci U.S.A., 2015]. The plates were pre-treated with 1:60 diluted Matrigel reduced growth factor (Corning). […] The OCR values were further normalized to the number of cells present in each well, quantified by the Hoechst staining (Hoechst 33342; Sigma-Aldrich) as measured using fluorescence at 355 nm excitation and 460 nm emission. […] ATP production was calculated as the difference between the basal respiration and respiration after oligomycin. Proton leak was calculated as the difference between respiration after oligomycin and after antimycin & rotenone. Cellular capacity to utilize palmitate as an energy source was calculated as the difference between the average OCR after second palmitate addition and the final respiration value before the second addition of palmitate. […]

For elamipretide [SS-31], the “proton leak (OCR after oligomycin minus OCR after antimycin & rotenone)” value was “significantly lower”. Further, under “listed as elamipretide (SS-31)”, the “proton leak (OCR after oligomycin minus OCR after antimycin & rotenone)” value was “rescued the increased proton leak”.

The record behind these values is patent US20200392497A1, “METHODS AND COMPOSITIONS FOR DETECTING AND PROMOTING CARDIOLIPIN REMODELING AND CARDIOMYOCYTE MATURATION AND RELATED METHODS OF TREATING MITOCHONDRIAL DYSFUNCTION” (University of Washington, priority 2017, published 2020).
